Measurements as given in ChEMBL document CHEMBL1149662, “Design and synthesis of a library of tertiary amides: evaluation as mimetics of the melanocortins' active core” (Bioorg Med Chem, 2007).
pKi: −log10 of the molar value.

Assays:
[1] = biological target: Melanocortin receptor 3 (Homo sapiens, UniProt P41968); experiment: Displacement of [125I]NDP-MSH from human recombinant MC3 receptor expressed in Sf9 cells
[2] = biological target: Melanocortin receptor 4 (Homo sapiens, UniProt P32245); experiment: Displacement of [125I]NDP-MSH from human recombinant MC4 receptor expressed in Sf9 cells
[3] = biological target: Melanocortin receptor 5 (Homo sapiens, UniProt P33032); experiment: Displacement of [125I]NDP-MSH from human recombinant MC5 receptor expressed in Sf9 cells
[4] = biological target: Melanocyte-stimulating hormone receptor (Mus musculus, UniProt Q01727); experiment: Displacement of [125I]NDP-MSH from MC1 receptor in mouse B16 cells; type: cell-based
Sequence of Melanocyte-stimulating hormone receptor (Q01727 whole entry): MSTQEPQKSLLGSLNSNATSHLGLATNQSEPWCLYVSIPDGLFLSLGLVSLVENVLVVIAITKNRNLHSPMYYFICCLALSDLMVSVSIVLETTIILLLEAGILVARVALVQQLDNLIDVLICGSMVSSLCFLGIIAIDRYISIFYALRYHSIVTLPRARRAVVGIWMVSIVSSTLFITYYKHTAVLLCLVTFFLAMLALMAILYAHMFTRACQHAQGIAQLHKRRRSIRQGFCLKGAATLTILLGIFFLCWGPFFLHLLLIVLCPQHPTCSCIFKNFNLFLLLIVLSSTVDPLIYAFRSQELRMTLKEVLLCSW

Sequence of Melanocortin receptor 5 (P33032 whole entry): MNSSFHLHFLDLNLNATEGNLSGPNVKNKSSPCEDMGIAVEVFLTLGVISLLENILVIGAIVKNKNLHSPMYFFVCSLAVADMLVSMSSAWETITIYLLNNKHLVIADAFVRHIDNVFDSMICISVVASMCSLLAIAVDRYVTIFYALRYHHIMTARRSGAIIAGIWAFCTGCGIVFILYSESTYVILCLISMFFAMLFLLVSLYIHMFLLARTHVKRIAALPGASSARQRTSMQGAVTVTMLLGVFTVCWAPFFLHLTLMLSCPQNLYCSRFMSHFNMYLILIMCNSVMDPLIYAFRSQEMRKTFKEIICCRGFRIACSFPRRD
Sequence of Melanocortin receptor 3 (P41968 whole entry): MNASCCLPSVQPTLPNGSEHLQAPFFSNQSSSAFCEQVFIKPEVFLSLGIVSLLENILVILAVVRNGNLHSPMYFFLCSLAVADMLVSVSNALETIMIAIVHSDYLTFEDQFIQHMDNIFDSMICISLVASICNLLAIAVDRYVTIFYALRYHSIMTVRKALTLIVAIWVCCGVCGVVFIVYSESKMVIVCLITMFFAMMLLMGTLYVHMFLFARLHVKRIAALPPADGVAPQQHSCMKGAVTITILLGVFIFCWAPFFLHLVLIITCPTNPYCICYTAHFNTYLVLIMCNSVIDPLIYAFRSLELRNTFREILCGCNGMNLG
Sequence of Melanocortin receptor 4 (P32245 whole entry): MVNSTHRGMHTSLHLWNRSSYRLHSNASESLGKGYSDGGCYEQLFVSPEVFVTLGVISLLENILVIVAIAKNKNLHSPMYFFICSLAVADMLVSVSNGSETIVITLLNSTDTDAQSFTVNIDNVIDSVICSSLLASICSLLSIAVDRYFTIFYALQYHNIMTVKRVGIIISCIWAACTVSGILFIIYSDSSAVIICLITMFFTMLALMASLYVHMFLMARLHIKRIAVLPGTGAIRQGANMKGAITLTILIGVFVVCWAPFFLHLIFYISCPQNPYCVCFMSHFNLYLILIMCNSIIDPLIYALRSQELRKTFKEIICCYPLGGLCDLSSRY

Compound	pKi [1]	pKi [2]	pKi [3]	pKi [4]
NCCCCCN(C/C=C\c1ccccc1)C(=O)CCc1c(Cc2ccc(O)cc2)[nH]c2ccccc12	4.57	5.15	5.17	5.48
COc1cc(Cl)c(CN(C(=O)CCCc2c(Cc3ccc(O)cc3)[nH]c3ccccc23)C2CCC(CC3CCC(N)CC3)CC2)cc1OC (stereo not drawn)	5.08	5.72	4.96	6.20
NC1CCC(CC2CCC(N(C/C(Cl)=C/c3ccccc3)C(=O)CCCc3c[nH]c4ccccc34)CC2)CC1 (stereo in doubt; form 4)	4.51	5.25	5.31	5.85
NC1CCC(CC2CCC(N(Cc3ccccc3)C(=O)CCCc3c[nH]c4ccccc34)CC2)CC1 (stereo in doubt; 10d-40-8)	5.03	5.08	4.74	6.38
C/C(=C\c1ccccc1)CN(CCCN)C(=O)c1c[nH]c2ccccc12	4.62	5.13	6.03	6.07
N=C(N)NCCN(Cc1ccc2ccccc2c1)C(=O)Cc1c[nH]c2ccccc12	4.24	3.75	4.82	4.72
COc1cc(Cl)c(CN(C(=O)CCCc2c[nH]c3ccccc23)C2CCC(CC3CCC(N)CC3)CC2)cc1OC (stereo in doubt; form 2)	4.60	5.82	5.05	5.72
NCCCCCCN(C/C(Cl)=C/c1ccccc1)C(=O)CCCc1c[nH]c2ccccc12	4.59	5.42	4.68	5.62
NCCCCCN(Cc1ccccc1)C(=O)CCCc1c(Cc2ccc(O)cc2)[nH]c2ccccc12	4.33	5.30	5.29	5.70
NCCCCCN(Cc1ccccc1)C(=O)[C@H](N)Cc1ccc2ccccc2c1	4.39	4.89	4.62	5.30
NC(N)=NCCCN(Cc1ccc2ccccc2c1)C(=O)CCCc1c[nH]c2ccccc12	5.12	5.22	5.21	5.72
N=C(N)NCCCCN(Cc1ccc2ccccc2c1)C(=O)Cc1c[nH]c2ccccc12	3.86	3.74	4.80	4.77
C=C(Br)CN(C(=O)CCCc1c[nH]c2ccccc12)C1CCC(CC2CCC(N)CC2)CC1 (stereo in doubt; form 2)	4.54	5.26	5.03	5.85
NCCCCN(C/C=C/c1ccccc1)C(=O)CCc1c[nH]c2ccccc12	4.17	4.74	5.00	5.08
NCCCN(CCCc1ccccc1)C(=O)Cc1c[nH]c2ccccc12	5.24	4.49	4.89	5.30
COc1cc(O)ccc1/C=C/CN(C(=O)CCCc1c[nH]c2ccccc12)C1CCC(CC2CCC(N)CC2)CC1 (stereo in doubt; form 2)	4.29	5.10	4.96	5.48
NCCCCCN(C/C(Cl)=C\c1ccccc1)C(=O)/C=C/c1c[nH]c2ccccc12	4.57	4.23	5.27	5.57
CC(C)N(CCCCN)C(=O)c1c[nH]c2ccccc12	3.95	3.65	3.55	3.97
NCCCCCN(C(=O)Cc1c[nH]c2ccccc12)C1CCCCCC1	4.85	4.80	4.46	5.22
COc1cc(Br)c(CN(C(=O)CCCc2c[nH]c3ccccc23)[C@H]2CC[C@@H](C[C@H]3CC[C@@H](N)CC3)CC2)cc1OC	5.09	5.11	5.16	5.64
COc1ccc(CN(C(=O)CCCc2c[nH]c3ccccc23)C2CCC(CC3CCC(N)CC3)CC2)cc1Br (stereo not drawn)	5.03	5.32	3.56	5.54
NCCCCCCN(Cc1ccccc1)C(=O)CCCc1c[nH]c2ccccc12	4.37	5.47	5.42	4.89
NC1CCC(CC2CCC(N(Cc3ccncc3)C(=O)CCCc3c[nH]c4ccccc34)CC2)CC1 (stereo in doubt; form 2)	3.76	5.25	4.02	5.20
NCCCN(C/C=C/c1ccccc1)C(=O)C(=O)c1c[nH]c2ccccc12	4.77	5.30	5.31	5.80
NC1CCC(CC2CCC(N(Cc3ccccc3F)C(=O)CCCc3c[nH]c4ccccc34)CC2)CC1 (stereo not drawn)	4.70	5.43	5.14	5.62
NCCCCCN(C/C(Cl)=C\c1ccccc1)C(=O)CCCc1c[nH]c2ccccc12	5.27	5.64	4.55	6.11
NCc1ccc(CN(Cc2ccc3ccccc3c2)C(=O)CCCc2c[nH]c3ccccc23)cc1	4.40	4.96	4.77	5.40
C=C(Br)CN(C(=O)CCCc1c[nH]c2ccccc12)C1CCC(CC2CCC(N)CC2)CC1 (stereo in doubt; form 3)	4.68	5.48	5.11	6.00

Further lines, results first:

pKi [1]	pKi [2]	pKi [3]	pKi [4]	Compound
4.72	5.49	5.31	5.92	C=C(Br)CN(C(=O)CCCc1c[nH]c2ccccc12)C1CCC(CC2CCC(N)CC2)CC1 (stereo in doubt; form 1)
4.57	5.42	5.26	6.09	C=C(Br)CN(C(=O)CCCc1c[nH]c2ccccc12)C1CCC(CC2CCC(N)CC2)CC1 (stereo in doubt; form 4)
4.29	3.97	4.89	4.77	NCCN(C/C=C/c1ccccc1)C(=O)CCc1c[nH]c2ccccc12
4.66	5.43	5.08	5.49	COc1ccc(CN(C(=O)CCCc2c[nH]c3ccccc23)C2CCC(CC3CCC(N)CC3)CC2)cc1OC (stereo not drawn)
4.41	5.25	4.31	5.34	NC1CCC(CC2CCC(N(Cc3ccccn3)C(=O)CCCc3c[nH]c4ccccc34)CC2)CC1 (stereo not drawn)
4.59	5.68	4.92	5.68	CCOc1cc(CN(C(=O)CCCc2c(Cc3ccc(O)cc3)[nH]c3ccccc23)C2CCC(CC3CCC(N)CC3)CC2)ccc1OC (stereo not drawn)
4.28	5.52	4.08	5.74	NC1CCC(CC2CCC(N(Cc3c(F)cccc3F)C(=O)CCCc3c[nH]c4ccccc34)CC2)CC1 (stereo not drawn)
4.82	5.59	3.98	5.85	NC1CCC(CC2CCC(N(Cc3ccccc3)C(=O)CCCc3c[nH]c4ccccc34)CC2)CC1 (stereo in doubt)
4.24	5.28	4.31	5.66	NC1CCCC(NC(=O)NC2CCCC(N(Cc3ccccc3)C(=O)CCCc3c[nH]c4ccccc34)C2)C1 (stereo not drawn)
5.27	5.13	5.04	5.54	COc1cc(Br)c(CN(C(=O)CCCc2c(Cc3ccc(O)cc3)[nH]c3ccccc23)[C@H]2CC[C@@H](C[C@H]3CC[C@H](N)CC3)CC2)cc1OC
4.42	4.77	4.70	4.92	NCCCCN(Cc1ccccc1)C(=O)CCCc1c[nH]c2ccccc12
4.60	5.19	4.64	5.54	NC1CCCC(NC(=O)NC2CCCC(N(Cc3ccccc3)C(=O)CCCc3c(Cc4ccc(O)cc4)[nH]c4ccccc34)C2)C1 (stereo not drawn)
4.72	5.19	4.74	5.77	NCCCCN(Cc1ccc2ccccc2c1)C(=O)c1c[nH]c2ccccc12
4.70	5.80	5.41	5.82	N#Cc1ccc(CN(C(=O)CCCc2c[nH]c3ccccc23)C2CCC(CC3CCC(N)CC3)CC2)cc1 (stereo in doubt; form 2)
4.11	5.04	5.18	5.34	NCCCN1CCN(CCCN(C/C(Cl)=C/c2ccccc2)C(=O)CCCc2c[nH]c3ccccc23)CC1
4.92	4.80	3.57	5.23	NCCCN(Cc1ccc2ccccc2c1)C(=O)Cc1ccc2ccccc2c1
3.70	5.35	5.05	4.77	CSc1ccc(CN(C(=O)CCCc2c(Cc3ccc(O)cc3)[nH]c3ccccc23)C2CCC(CC3CCC(N)CC3)CC2)cc1 (stereo not drawn)
4.32	4.96	4.92	5.22	NCCCN(C(=O)/C=C/c1c[nH]c2ccccc12)C1CCc2ccccc2C1 (stereo not drawn)
4.77	5.31	5.12	5.82	COc1ccccc1/C=C/CN(C(=O)CCCc1c[nH]c2ccccc12)C1CCC(CC2CCC(N)CC2)CC1 (stereo in doubt; form 1)
4.62	5.64	5.28	5.68	NC1CCC(CC2CCC(N(CCc3c(F)cccc3Cl)C(=O)CCCc3c[nH]c4ccccc34)CC2)CC1 (stereo not drawn)
4.30	4.89	5.28	5.82	NCCCCCN(Cc1ccc2ccccc2c1)C(=O)Cc1c[nH]c2ccccc12
4.74	5.15	4.51	5.21	NCCCN(C/C(Cl)=C/c1ccccc1)C(=O)CCCc1c[nH]c2ccccc12
4.62	5.44	5.06	5.57	NCC1CCCC(CN(Cc2ccccc2)C(=O)CCCc2c[nH]c3ccccc23)C1 (stereo not drawn)
3.46	5.39	5.36	5.33	Cc1ccccc1CN(C(=O)CCCc1c(Cc2ccc(O)cc2)[nH]c2ccccc12)C1CCC(CC2CCC(N)CC2)CC1 (stereo not drawn)
